According to ChEMBL document CHEMBL5505970 (J Med Chem, 2024):
Calls of active or inactive are those of the source. The calls are words filed in the database; no cut-off is given here.

Experiments:
[1] = Toxicity in NOD-SCID mouse xenografted with human Granta-519 cells assessed as late stage erythroblasts in bone marrow at 10 mg/kg, po qd for 3 days and measured at 4 days after treatment cessation by flow cytometry; assay type: organism-based; conditions: in vivo, 72 h, time 3 day
[2] = Toxicity in BALB/c mouse assessed as reduction in bone marrow cell viability at 10 mg/kg, po qd for 3 days by trypan blue exclusion assay; assay type: organism-based; conditions: in vivo, 72 h, time 3 day
[3] = Toxicity in BALB/c mouse assessed as early stage erythroblasts in bone marrow at 10 mg/kg, po qd for 3 days and measured at 1 day after treatment discontinuation by flow cytometry; assay type: organism-based; conditions: in vivo, 72 h, time 3 day
[4] = Toxicity in NOD-SCID mouse xenografted with human Granta-519 cells assessed as changes in body weight at 30 mg/kg, po qd for 3 days and measured at 4 days after drug treatment cessation; assay type: organism-based; conditions: in vivo, 72 h, time 3 day
[5] = molecular target: T1, Serine/threonine-protein kinase ATR (Homo sapiens, UniProt Q13535); experiment: Inhibition of ATR in human HeLa S3 cells assessed as decrease in CHK1 phosphorylation at Ser345 residue pretreated for 20 mins followed by gemcitabine stimulation for 3.5 to 4 hrs by AlphaScreen SurFire assay; assay type: cell-based
[6] = Toxicity in NOD-SCID mouse xenografted with human Granta-519 cells assessed as red blood cells count at 5 mg/kg, po qd for 3 days and 4 days off intermittent dosing for 3 cycles co-administered with PARP inhibitor, niraparib and measured on day 21; assay type: organism-based; conditions: in vivo, 504 h, time 21 day
Granta-519 [7] = experiment: Antitumor activity against human Granta-519 cells xenografted in NOD-SCID mouse assessed as decrease in tumor volume at 10 mg/kg, po qd for 7 days; assay type: functional, organism-based; conditions: time 7.0 day
[8] = Toxicity in BALB/c mouse assessed as increase in proportion of red blood cells in bone marrow at 10 mg/kg, po qd for 3 days; assay type: organism-based; conditions: in vivo, 72 h, time 3 day
[9] = Toxicity in NOD-SCID mouse xenografted with human Granta-519 cells assessed as reticulocytes count at 5 mg/kg, po qd for 3 days and 4 days off intermittent dosing for 3 cycles co-administered with PARP inhibitor, niraparib and measured on day 21; assay type: organism-based; conditions: in vivo, 504 h, time 21 day
[10] = Oral bioavailability in Sprague-Dawley rat at 2.5 to 5 mg/kg formulated as a solution in 5% NMP:95% (10% VitE TPGS in water) measured for 24 hrs by reverse phase liquid chromatography coupled to mass spectrometry; assay type: ADME, organism-based; conditions: in vivo, dose 2.5-5 mg/kg
LoVo = experiment: Cytotoxicity against human LoVo cells assessed as reduction in cell viability incubated for 5 days by CellTiter-Glo assay; assay type: functional, cell-based; conditions: 120 h
[11] = Clearance in human liver microsomes at 1 uM in presence of NADPH by ESI/LC-MS/MS analysis; assay type: ADME, Microsome; conditions: read-out: CLH
[12] = Toxicity in BALB/c mouse assessed as morphological changes in myeloid lineage cells in bone marrow at 10 mg/kg, po qd for 3 days; assay type: organism-based; conditions: in vivo, 72 h, time 3 day
[13] = Toxicity in NOD-SCID mouse xenografted with human Granta-519 cells assessed as reduction in late stage erythroblasts in bone marrow at 10 mg/kg, po qd for 1 day co-administered with PARP inhibitor, niraparib by flow cytometry; assay type: organism-based; conditions: in vivo, 24 h
[14] = Clearance in dog hepatocytes at 1 uM measured per million cells by ESI/LC-MS/MS analysis; assay type: ADME, cell-based, Canis lupus familiaris, Hepatocyte; conditions: read-out: CLH
[15] = Toxicity in NOD-SCID mouse xenografted with human Granta-519 cells assessed as late stage erythroblasts in bone marrow at 10 mg/kg, po qd for 3 days co-administered with PARP inhibitor, niraparib and measured at 4 days after treatment cessation by flow cytometry; assay type: organism-based; conditions: in vivo, 72 h, time 3 day
[16] = Oral bioavailability in cynomolgus monkey at 1 mg/kg formulated as suspension in 10% propylene glycol:18% PEG400 in water measured for 24 hrs by reverse phase liquid chromatography coupled to mass spectrometry; assay type: ADME, organism-based, Macaca fascicularis; conditions: in vivo
Granta-519 [17] = experiment: Antitumor activity against human Granta-519 cells xenografted in NOD-SCID mouse assessed as decrease in tumor volume at 30 mg/kg, po qd for 3 days and measured at 4 days after drug treatment cessation; assay type: functional, organism-based; conditions: time 3.0 day
[18] = Toxicity in BALB/c mouse assessed as megakaryocytes in bone marrow at 10 mg/kg, po qd for 3 days; assay type: organism-based; conditions: in vivo, 72 h, time 3 day
[19] = Toxicity in BALB/c mouse assessed as early stage erythroblasts in bone marrow at 10 mg/kg, po qd for 3 days and measured at 2 days after treatment discontinuation by flow cytometry; assay type: organism-based; conditions: in vivo, 72 h, time 3 day
Granta-519 [20] = experiment: Antitumor activity against human Granta-519 cells xenografted in NOD-SCID mouse assessed as reduction in tumor volume at 5 mg/kg, po qd for 3 days co-administered with PARP inhibitor, niraparib; assay type: functional, organism-based; conditions: time 3.0 day
[21] = Toxicity in BALB/c mouse assessed as late stage erythroblasts in bone marrow at 10 mg/kg, po qd for 3 days and measured at 1 day after treatment discontinuation by flow cytometry; assay type: organism-based; conditions: in vivo, 72 h, time 3 day
[22] = Clearance in human hepatocytes at 1 uM measured per million cells by ESI/LC-MS/MS analysis; assay type: ADME, cell-based, Hepatocyte; conditions: read-out: CLH
[23] = Toxicity in NOD-SCID mouse xenografted with human Granta-519 cells assessed as circulating reticulocytes at 30 mg/kg, po qd for 3 days and 4 days off treatment and measured on day 14; assay type: organism-based; conditions: in vivo, 72 h, time 3 day
[24] = Toxicity in BALB/c mouse assessed as depletion of erythroid lineage by measuring increase in myeloid to erythroid ratio in bone marrow at 10 mg/kg, po qd for 3 days; assay type: organism-based; conditions: in vivo, 72 h, time 3 day
[25] = molecular target: T1, Serine/threonine-protein kinase ATR; experiment: Inhibition of ATR in gemcitabine-stimulated human LoVo cells assessed as decrease in CHK1 phosphorylation at Ser345 residue; assay type: cell-based; conditions: lovo
[26] = Clearance in monkey hepatocytes at 1 uM in presence of NADPH by ESI/LC-MS/MS analysis; assay type: ADME, cell-based, Macaca mulatta, Hepatocyte; conditions: rhesus monkey
[27] = Toxicity in NOD-SCID mouse xenografted with human Granta-519 cells assessed as late stage erythroblasts in bone marrow at 10 mg/kg, po qd for 3 days co-administered with PARP inhibitor, niraparib and measured at 2 days after treatment cessation by flow cytometry; assay type: organism-based; conditions: in vivo, 72 h, time 3 day
[28] = Oral bioavailability in Beagle dog at 5 mg/kg formulated as suspension in 0.5% methocel and 0.02% SLS in 50 mM citrate buffer measured for 24 hrs by reverse phase liquid chromatography coupled to mass spectrometry; assay type: ADME, organism-based, Canis lupus familiaris; conditions: in vivo
[29] = Toxicity in BALB/c mouse assessed as early stage erythroblasts in bone marrow at 10 mg/kg, po qd for 3 days and 4 days off intermittent dosing for 4 cycles by flow cytometry; assay type: organism-based; conditions: in vivo, 672 h, time 28 day
[30] = Toxicity in BALB/c mouse assessed as late stage erythroblasts in bone marrow at 10 mg/kg, po qd for 3 days and measured at 4 days after treatment discontinuation by flow cytometry; assay type: organism-based; conditions: in vivo, 72 h, time 3 day
[31] = Toxicity in NOD-SCID mouse xenografted with human Granta-519 cells assessed as early stage erythroblasts in bone marrow at 10 mg/kg, po qd for 3 days co-administered with PARP inhibitor, niraparib and measured at 4 days after treatment cessation by flow cytometry; assay type: organism-based; conditions: in vivo, 72 h, time 3 day
[32] = Toxicity in BALB/c mouse assessed as mature red blood cells at 10 mg/kg, po qd for 3 days; assay type: organism-based; conditions: in vivo, 72 h, time 3 day

T1 sequence (Q13535 whole entry): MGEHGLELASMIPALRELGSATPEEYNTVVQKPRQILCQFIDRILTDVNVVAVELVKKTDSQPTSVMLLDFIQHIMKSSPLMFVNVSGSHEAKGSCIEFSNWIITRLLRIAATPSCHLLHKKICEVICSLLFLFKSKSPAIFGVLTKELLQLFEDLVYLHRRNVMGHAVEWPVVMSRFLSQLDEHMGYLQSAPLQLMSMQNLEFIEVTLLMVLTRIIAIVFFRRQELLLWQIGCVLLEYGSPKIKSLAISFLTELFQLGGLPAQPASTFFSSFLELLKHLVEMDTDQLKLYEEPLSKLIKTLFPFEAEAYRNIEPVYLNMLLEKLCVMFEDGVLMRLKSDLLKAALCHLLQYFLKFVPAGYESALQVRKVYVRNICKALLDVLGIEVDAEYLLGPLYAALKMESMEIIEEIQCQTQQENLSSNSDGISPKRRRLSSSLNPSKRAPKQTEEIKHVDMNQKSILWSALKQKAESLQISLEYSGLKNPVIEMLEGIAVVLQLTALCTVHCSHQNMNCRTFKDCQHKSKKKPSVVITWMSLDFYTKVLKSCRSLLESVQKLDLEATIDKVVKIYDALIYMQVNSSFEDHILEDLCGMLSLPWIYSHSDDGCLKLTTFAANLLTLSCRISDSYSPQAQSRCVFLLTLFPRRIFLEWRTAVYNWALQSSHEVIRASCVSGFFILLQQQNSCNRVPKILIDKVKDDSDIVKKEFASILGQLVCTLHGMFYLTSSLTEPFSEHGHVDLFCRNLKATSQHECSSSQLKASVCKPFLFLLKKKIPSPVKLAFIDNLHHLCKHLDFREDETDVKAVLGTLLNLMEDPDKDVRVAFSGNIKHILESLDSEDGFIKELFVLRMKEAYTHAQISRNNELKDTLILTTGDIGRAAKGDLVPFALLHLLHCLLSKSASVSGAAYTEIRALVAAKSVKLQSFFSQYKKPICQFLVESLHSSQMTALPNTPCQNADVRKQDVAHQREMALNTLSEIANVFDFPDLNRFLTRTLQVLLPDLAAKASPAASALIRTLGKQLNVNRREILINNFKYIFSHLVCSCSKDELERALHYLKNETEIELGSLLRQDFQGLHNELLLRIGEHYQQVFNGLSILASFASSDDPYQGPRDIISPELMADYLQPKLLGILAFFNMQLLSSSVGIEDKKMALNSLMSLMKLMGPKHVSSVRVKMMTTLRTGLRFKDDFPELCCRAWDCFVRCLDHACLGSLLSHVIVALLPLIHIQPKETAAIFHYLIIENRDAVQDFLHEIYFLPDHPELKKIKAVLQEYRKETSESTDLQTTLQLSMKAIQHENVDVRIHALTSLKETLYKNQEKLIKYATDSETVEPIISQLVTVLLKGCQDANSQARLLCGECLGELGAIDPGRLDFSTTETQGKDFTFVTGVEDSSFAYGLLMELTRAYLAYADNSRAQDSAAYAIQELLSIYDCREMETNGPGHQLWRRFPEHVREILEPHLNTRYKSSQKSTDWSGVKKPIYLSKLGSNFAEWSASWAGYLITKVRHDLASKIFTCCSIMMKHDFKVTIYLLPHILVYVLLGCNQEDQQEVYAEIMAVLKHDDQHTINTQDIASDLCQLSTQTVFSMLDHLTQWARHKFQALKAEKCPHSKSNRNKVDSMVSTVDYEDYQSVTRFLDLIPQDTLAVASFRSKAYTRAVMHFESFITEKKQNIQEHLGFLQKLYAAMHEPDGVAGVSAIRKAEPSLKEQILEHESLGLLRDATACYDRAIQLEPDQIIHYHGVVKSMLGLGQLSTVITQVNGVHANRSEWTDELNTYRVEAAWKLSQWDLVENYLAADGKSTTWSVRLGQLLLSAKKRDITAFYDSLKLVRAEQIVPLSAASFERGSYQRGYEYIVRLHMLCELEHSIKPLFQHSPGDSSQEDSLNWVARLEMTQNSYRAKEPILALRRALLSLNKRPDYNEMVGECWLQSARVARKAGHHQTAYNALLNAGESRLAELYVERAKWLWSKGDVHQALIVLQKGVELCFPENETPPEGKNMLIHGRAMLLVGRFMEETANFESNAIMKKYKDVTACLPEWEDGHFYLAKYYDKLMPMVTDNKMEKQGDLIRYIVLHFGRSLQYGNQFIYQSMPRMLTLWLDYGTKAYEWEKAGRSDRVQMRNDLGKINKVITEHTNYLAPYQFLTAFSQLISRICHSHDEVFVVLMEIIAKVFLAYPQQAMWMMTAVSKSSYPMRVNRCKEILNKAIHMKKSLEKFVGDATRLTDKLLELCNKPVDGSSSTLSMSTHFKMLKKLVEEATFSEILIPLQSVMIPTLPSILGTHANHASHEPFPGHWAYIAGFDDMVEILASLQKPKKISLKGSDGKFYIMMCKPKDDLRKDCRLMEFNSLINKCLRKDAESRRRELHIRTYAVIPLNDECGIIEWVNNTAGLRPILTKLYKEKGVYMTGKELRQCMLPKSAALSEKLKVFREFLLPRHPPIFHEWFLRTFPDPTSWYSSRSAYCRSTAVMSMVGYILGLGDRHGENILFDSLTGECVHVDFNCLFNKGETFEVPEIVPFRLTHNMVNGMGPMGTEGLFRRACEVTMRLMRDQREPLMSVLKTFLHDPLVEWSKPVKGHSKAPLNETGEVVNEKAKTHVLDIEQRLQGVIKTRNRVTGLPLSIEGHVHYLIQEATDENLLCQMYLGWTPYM

IC50 [5]: 0.9 nM | bioavailability [10]: 66% | microsomal CLint at 1 µM [11]: < 11.6 µL/min/mg | hepatocyte CLint at 1 µM [14]: < 1 µL/min/1e6 cells | bioavailability [16]: 56% | hepatocyte CLint at 1 µM [22]: 1.5 µL/min/1e6 cells | IC50 [25]: 0.33 nM | CLH [26]: 3.6 µL/min | bioavailability [28]: 113%
Structure (SMILES): C[C@@H]1COCCN1c1cc([C@]2(O)C[C@H]3CC[C@@H](C2)O3)c2cnn(-c3cc[nH]n3)c2n1 [CAMONSERTIB]
Activity [1]: Non-Toxic | Activity [2]: Toxic | Activity [3]: Non-Toxic | Activity [4]: Non-Toxic | Activity [6]: Non-Toxic | Activity (Granta-519 [7]): Active | Activity [8]: Toxic | Activity [9]: Non-Toxic | IC50 (LoVo): 28 nM | Activity [12]: Non-Toxic | Activity [13]: Toxic | Activity [15]: Non-Toxic | Activity (Granta-519 [17]): Active | Activity [18]: Non-Toxic | Activity [19]: Non-Toxic | Activity (Granta-519 [20]): Active | Activity [21]: Non-Toxic | Activity [23]: Non-Toxic | Activity [24]: Toxic | Activity [27]: Non-Toxic | Activity [29]: Non-Toxic | Activity [30]: Non-Toxic | Activity [31]: Non-Toxic | Activity [32]: Non-Toxic
